Experimental data as given in PMC4669722, “Antitumour potential of BPT: a dual inhibitor of cdk4 and tubulin polymerization” (Cell Death & Disease, 2015).
“Also recorded” adds a separate entry of the source. Like-named read-outs stand apart in the source and are kept apart here.

Tests used:
pBluescript plasmid DNA = test: Topoisomerase I catalysed DNA relaxation or unwinding assay; format: biochemical
Protocol: For assay, 5 nM supercoiled pBluescript d-s plasmid DNA and 10 U of topoisomerase-I active enzyme were used in each reaction well. To ensure that the assay determines the DNA-intercalating property of compounds and not topoisomerase I inhibition, in a parallel experiment relaxed plasmid DNA was first prepared by treating with topo I enzyme for 30 min and then used as an initial substrate for the assay. DNA relaxation assays were performed in the presence or absence of compounds in 40 μl of DNA unwinding assay buffer. After 30 min incubation at 37 °C, reaction mixtures were treated with 3 μl of 250 mM EDTA and extracted with phenol/chloroform. The DNA was dissolved in tris-EDTA buffer, pH 8.0. The samples (20 μl) were treated with 2 μl of 2.5% SDS, mixed with 2.5 μl agarose gel loading buffer (10x) and subjected to electrophoresis on a 0.8% agarose gel without EtBr (separating the DNA in the presence of EtBr would convert the relaxed DNA into the supercoiled form). After the electrophoretic separation, DNA bands were stained with 1 μg/ml EtBr and visualized using a UV illuminator. The compounds were compared with fascaplysin, which is a known DNA-intercalating molecule. Camptothecin, which is a known topoisomerase- I inhibitor, was used to test the activity and inhibition of enzyme.

[1] = test system: BNL CL2 (mouse embryonic normal hepatic cells); test: Flow cytometric cell cycle analysis, BNL CL2; format: cell-based; conditions: BNL CL2, 48 h, IC50 and IC70 concentrations
Protocol: (§1) The untreated (control) and treated (with test compounds) cells were harvested by trypsinization, washed once with PBS and then fixed in 70% chilled (−20 °C) ethanol for minimum 1 h. After the fixation step, cells were centrifuged for 5 min at 3000 × g at room temperature, and the pellet was suspended in PBS containing 50 μg/ml propidium iodide (Sigma-Aldrich, Dorset, UK; cat. no. P-4170) and 0.5 mg/ml DNase-free ribonuclease (Sigma-Aldrich; cat. no. R-5503). The cells were stained for 1 h in the dark at 4 °C. Cell cycle analysis was performed on the Beckman Coulter (Epics Altra) fluorescence-activated cell sorter (Beckman Coulter UK Ltd, Buckinghamshire, UK). To gate all the events that represent single cells, and not cell doublets or cell clumps, the following analyses were performed on the samples. Cytograms of propidium iodide fluorescence peak signal versus integrated fluorescence or the linear signal were plotted. All data points on the straight line were isolated in a single gate and the gated data was further used for plotting a histogram that represents a complete cell cycle. The total number of events was not allowed to exceed 200 events per s. Data acquisition was stopped after a minimum of 10 000 events had been collected.

Cdk9-cyclin T1 = Cdk9-cyclin T1 (Homo sapiens, UniProt P50750); test: In vitro kinase assay, Cdk9-cyclin T1 (in-house); format: biochemical; conditions: three independent experiments; read-out: IC50 (mean±S.D.), Cdk9-cyclin T1
Chain of Cdk9-cyclin T1 (P50750 whole entry): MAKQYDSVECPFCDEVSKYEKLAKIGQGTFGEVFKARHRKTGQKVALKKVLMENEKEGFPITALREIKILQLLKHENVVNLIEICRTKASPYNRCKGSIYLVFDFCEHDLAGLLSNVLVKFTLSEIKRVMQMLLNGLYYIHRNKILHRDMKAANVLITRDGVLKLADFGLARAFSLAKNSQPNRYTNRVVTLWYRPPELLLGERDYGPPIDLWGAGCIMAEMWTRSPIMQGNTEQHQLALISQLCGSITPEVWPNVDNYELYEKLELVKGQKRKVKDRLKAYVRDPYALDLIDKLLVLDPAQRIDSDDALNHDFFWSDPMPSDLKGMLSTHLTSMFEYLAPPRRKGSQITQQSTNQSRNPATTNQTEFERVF
Chain of Cdk9-cyclin T1 (O60563 whole entry partner): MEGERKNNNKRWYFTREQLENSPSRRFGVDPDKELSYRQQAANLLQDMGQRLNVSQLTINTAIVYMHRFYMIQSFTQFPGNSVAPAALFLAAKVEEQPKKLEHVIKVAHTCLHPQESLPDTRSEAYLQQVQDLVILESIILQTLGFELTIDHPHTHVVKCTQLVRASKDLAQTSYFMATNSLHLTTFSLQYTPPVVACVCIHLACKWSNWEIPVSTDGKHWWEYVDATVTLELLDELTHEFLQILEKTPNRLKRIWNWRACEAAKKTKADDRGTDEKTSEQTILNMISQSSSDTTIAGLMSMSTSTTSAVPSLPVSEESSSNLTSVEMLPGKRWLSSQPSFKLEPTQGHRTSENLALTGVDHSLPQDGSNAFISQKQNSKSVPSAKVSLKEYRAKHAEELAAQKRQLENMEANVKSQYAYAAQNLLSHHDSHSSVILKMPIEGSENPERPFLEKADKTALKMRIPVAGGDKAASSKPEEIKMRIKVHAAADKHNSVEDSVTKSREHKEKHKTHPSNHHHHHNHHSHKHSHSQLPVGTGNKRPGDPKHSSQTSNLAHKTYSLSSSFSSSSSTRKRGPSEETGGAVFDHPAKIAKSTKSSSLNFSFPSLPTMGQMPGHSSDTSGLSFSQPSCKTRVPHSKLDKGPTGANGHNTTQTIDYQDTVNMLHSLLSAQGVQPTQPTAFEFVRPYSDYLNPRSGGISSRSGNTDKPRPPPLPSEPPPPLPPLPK
Protocol: (§2) The in vitro kinase assays for testing against Cdk4-cyclin D1, Cdk2-cyclin A, Cdk1-cyclin B1 and Cdk9-cyclin T1 were performed in-house. The methodology and results have been reported previously.[20], [30], [31], [32], [45] The kinase profiling for 58 representative kinases was carrried out commercially at Millipore Bioscience Division, Livingston, UK.

PDGFR = test: Kinase profiling (Millipore), PDGFR; format: biochemical
Protocol: as §2

[2] = test system: BNL CL2 (mouse normal hepatic cells); test: Cell proliferation (MTT) assay, BNL CL2; format: cell-based
Protocol: (§3) All 10 human cancer cell lines were maintained at 37 °C in 5% CO2 in RPMI-1640 medium, supplemented with 10% foetal calf serum and 100 μg/ml normocin. The 10 cancer cell lines used for screening were all obtained from ATCC (Manassas, VA, USA); they were the NSCLC (a form of cancer that is resistant to chemotherapy) lines: NCI-H460 (pRb^+, p53^+), A549 (pRb^+, p53^+), Calu-1 (pRb^+, p53-null), NCI-H1299 (pRb^+, p53-null), NCI-H358 (pRb-null, p53-null); the colon cancer line LS174T (pRb^+, p53^+); the prostate cancer line PC-3 (pRb^+, p53-null); the pancreatic cancer line MiaPaca (pRb^+, p53-mutant). The genotypes within brackets indicate the status of the tumour suppressor proteins pRb and p53. The mouse embryonic normal hepatic cell line (BNL CL2) and its SV40 large T-antigen-transformed counterpart cell line (BNL SV A.8) were also purchased from ATCC. The large T-antigen inactivates the tumour suppressor proteins p53 and pRb. The detailed procedure of cell proliferation (MTT) assay and IC50 determination was described previously.[32]

GSK3β = GSK3β (Homo sapiens, UniProt P49841); test: Kinase profiling (Millipore), GSK3β; format: biochemical
Chain of GSK3β (P49841 whole entry): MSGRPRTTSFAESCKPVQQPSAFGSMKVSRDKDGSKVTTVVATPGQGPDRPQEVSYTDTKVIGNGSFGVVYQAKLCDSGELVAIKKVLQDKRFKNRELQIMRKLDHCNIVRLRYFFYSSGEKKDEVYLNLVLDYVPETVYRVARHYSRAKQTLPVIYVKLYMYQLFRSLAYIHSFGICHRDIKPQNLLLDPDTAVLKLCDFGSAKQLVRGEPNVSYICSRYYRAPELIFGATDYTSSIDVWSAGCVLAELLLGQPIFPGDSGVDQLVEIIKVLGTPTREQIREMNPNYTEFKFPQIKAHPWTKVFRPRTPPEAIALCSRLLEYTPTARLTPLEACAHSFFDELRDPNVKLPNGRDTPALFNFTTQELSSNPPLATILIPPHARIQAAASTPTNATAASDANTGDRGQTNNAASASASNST
Protocol: as §2

[3] = Pharmacokinetics in BALB/c mice; format: in vivo
Protocol: Oral and intravenous pharmacokinetic studies of BPT were carried out in BALB/c male mice of age 4–6 weeks, by administering BPT orally and intravenous formulation at dose of 10 mg/kg for oral and 1 mg/kg for intravenous. Plasma samples were collected at appropriate time points between the range 0 and 24 h, and analysed by LC-MS-MS. Mean plasma concentration calculated and data were further analysed to determine PK parameters such as t1/2, Cmax, ACU, Vd and CL, using WinNonlin 5.3 software package (Pharsight Company, Princeton, NJ, USA).

MEK1 = MEK1 (Homo sapiens, UniProt Q02750); test: Kinase profiling (Millipore), MEK1; format: biochemical
Chain of MEK1 (Q02750 whole entry): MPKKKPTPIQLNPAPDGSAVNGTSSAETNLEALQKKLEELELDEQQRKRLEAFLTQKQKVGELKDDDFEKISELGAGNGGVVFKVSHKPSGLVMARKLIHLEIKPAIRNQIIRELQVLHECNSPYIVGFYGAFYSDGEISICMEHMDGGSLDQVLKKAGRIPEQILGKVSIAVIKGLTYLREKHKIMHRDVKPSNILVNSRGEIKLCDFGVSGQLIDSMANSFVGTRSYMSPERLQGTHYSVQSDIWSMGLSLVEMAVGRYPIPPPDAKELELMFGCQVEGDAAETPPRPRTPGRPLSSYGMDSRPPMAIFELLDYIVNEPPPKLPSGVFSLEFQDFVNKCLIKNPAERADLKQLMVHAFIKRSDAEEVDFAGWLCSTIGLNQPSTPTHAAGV
Protocol: as §2

[4] = test system: MiaPaCa (pancreatic; p53His273mut, pRb+); test: Cell proliferation (MTT) assay, MiaPaCa; format: cell-based; conditions: Homo sapiens, MIA PaCa-2, 48 h, read-out: IC50 cell growth inhibition, MiaPaCa
Protocol: as §3

A549 cells = test: Flow cytometric cell cycle analysis, A549; format: cell-based, human; conditions: 24 h
Protocol: as §1

[5] = test system: Calu-1 (NSCLC; p53 null, pRb+); test: Cell proliferation (MTT) assay, Calu-1; format: cell-based, human
Protocol: as §3

[6] = BNL CL2, concentration used in long-term survival assay (Fig. S3)
[7] = male, mouse, plasma, 1.0 mg/kg intravenous

For `O=C(c1ccccc1-c1ccccc1)N1CCc2c([nH]c3ccccc23)C1` [BPT, 2-(biphenyl-2-carbonyl)-2,3,4,9-tetrahydro-1H-pyrido[3,4-b]indole], the “state of relaxed (negatively supercoiled) plasmid DNA after treatment” value (pBluescript plasmid DNA; relaxed pBluescript DNA as substrate, BPT up to 100 μM, fascaplysin 1 μM) was “remained relaxed”, the “hindrance of topoisomerase-I catalysed DNA relaxation” value (pBluescript plasmid DNA; supercoiled pBluescript DNA, fascaplysin 10 and 1 µM, BPT 10 and 100 µM) was “does not hinder DNA relaxation process; also recorded: does not intercalate” and the “cells detected in the sub-G1 phase” value [1] was less than 10%. For the same compound, the “normal cells in the G2/M phase” value [1] was “More than 50%”, the IC50 (Cdk9-cyclin T1) was greater than 1000 µM and the IC50 (PDGFR) was greater than 10 µM. It also gave an IC30 [2, 6] of 0.4 µM, an IC70 [2, 6] of 0.9 µM and an IC50 ([2]; Mus musculus, BNL CL.2, 48 h, MTT, read-out: IC50 cell growth inhibition, BNL CL2) of 0.72 µM. The IC20 ([2]; Mus musculus, BNL CL.2, BNL CL2, concentration used in long-term survival assay (Fig. S3)) was 0.25 µM, the IC50 ([2]; Mus musculus, BNL CL.2, BNL CL2, concentration used in long-term survival assay (Fig. S3), read-out: IC50) was 0.6 µM and the IC50 (GSK3β) was greater than 10 µM. The oral bioavailability [3] was “poor”, the “plasma exposure after intravenous administration” value [3] was “good plasma exposure” and the CL ([3]; 1.0 mg/kg intravenous) was 95.8 ml/min per kg. For the same compound, the AUC(0-inf) [3, 7] was 0.174 µg·h/mL, the AUC(0-t) [3, 7] was 0.17 µg·h/mL and the C0 [3, 7] was 0.888 µg/mL. For the same compound, the Cmax [3, 7] was 0.413 µg/mL, the Vd [3, 7] was 1.56 L/kg and the half-life [3, 7] was 11.4 min. It also gave an AUC(0-t) ([3]; male, mouse, plasma, oral, 10 mg/kg per os) of 0.0177 µg·h/mL, an IC50 (MEK1) greater than 10 µM and an IC50 [4] of 0.8 µM. For the same compound, the “cells in G2/M” value (A549 cells; A549, IC50 concentration) was 82%, the “cells in G0/G1” value (A549 cells; A549, IC70 concentration) was 15% and the “cells in G2/M” value (A549 cells; A549, IC70 concentration) was 59%. For the same compound, the “cells in Sub G1 (apoptotic)” value (A549 cells; A549, IC70 concentration) was 13%, the IC50 ([5]; Homo sapiens, Calu-1, 48 h, MTT, read-out: IC50 cell growth inhibition, Calu-1) was 2.8 µM and the “resistance of Calu-1 cells to growth inhibition” value ([5]; relative to other cell lines) was “two- to three-fold”.
